Patent publication US20220259193A1, “KCNT1 INHIBITORS AND METHODS OF USE” (Praxis Precision Medicines, Inc., priority 2019, published 2022)

Target: T1, KCNT1 (KNa1.1, Slack) (Homo sapiens, UniProt Q5JUK3)
T1 construct: expressed in transfected cells; host or cells: HEK-TREX (tetracycline-inducible HEK cell line)
T1 sequence (Q5JUK3 1-1230): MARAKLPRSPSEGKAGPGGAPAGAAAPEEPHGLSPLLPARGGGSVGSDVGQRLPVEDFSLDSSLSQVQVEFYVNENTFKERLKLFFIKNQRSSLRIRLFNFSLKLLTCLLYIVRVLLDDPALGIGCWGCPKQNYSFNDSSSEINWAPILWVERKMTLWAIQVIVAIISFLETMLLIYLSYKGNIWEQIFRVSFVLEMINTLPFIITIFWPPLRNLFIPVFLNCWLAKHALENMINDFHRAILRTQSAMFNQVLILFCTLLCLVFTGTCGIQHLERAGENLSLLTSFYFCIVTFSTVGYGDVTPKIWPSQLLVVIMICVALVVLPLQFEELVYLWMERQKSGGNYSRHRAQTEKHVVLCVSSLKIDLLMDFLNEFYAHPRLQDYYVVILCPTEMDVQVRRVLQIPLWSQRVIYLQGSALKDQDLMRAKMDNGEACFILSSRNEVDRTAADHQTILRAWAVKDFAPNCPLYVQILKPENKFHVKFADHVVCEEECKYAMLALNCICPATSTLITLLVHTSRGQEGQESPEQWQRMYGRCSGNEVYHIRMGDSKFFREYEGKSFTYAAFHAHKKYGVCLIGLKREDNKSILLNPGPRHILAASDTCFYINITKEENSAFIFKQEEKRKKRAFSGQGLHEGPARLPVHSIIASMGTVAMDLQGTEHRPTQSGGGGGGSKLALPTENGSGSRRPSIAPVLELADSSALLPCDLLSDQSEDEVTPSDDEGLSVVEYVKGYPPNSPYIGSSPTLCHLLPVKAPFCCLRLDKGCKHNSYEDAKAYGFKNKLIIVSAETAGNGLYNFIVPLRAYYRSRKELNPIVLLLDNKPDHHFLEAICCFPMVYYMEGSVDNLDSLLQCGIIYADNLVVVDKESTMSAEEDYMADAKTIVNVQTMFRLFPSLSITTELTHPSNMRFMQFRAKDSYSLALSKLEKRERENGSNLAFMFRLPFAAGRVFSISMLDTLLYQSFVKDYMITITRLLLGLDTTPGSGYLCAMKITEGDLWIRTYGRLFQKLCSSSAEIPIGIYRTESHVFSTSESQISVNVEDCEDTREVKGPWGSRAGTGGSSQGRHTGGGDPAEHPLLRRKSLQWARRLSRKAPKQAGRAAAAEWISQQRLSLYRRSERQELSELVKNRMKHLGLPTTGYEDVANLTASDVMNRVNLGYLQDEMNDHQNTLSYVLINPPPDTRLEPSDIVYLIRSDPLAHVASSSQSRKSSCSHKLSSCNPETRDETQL
Test: KCNT1 patch clamp assay (SyncroPatch 384PE automated patch clamp)
Type: cell-based
Conditions: tetracycline inducible HEK-TREX cell line; perforated patch; step from −80 mV to 0 mV; room temperature; read-out: KCNT1-WT IC50
Description: KCNT1—Patch Clamp Assay Inhibition of KCNT1 (KNa1.1, Slack) was evaluated using a tetracycline inducible cell line (HEK-TREX). Currents were recorded using the SyncroPatch 384PE automated, patch clamp system. Pulse generation and data collection were performed with PatchController384 V1.3.0 and DataController384 V1.2.1 (Nanion Technologies). The access resistance and apparent membrane capacitance were estimated using built-in protocols. Current were recorded in perforated patch mode (10 μM escin) from a population of cells. […] The cells were allowed to recover in the cell hotel prior to experimentation. Currents were recorded at room temperature. […] The extracellular solution was used as the wash, reference and compound delivery solution. […] Escin is made at a 5 mM stock in water, aliquoted, and stored at −20° C. The compound plate was created at 2× concentrated in the extracellular solution. The compound was diluted to 1:2 when added to the recording well. The amount of DMSO in the extracellular solution was held constant at the level used for the highest tested concentration. A holding potential of −80 mV with a 100 ms step to 0 mV was used. […] The average mean current from 3 sweeps was calculated and the % inhibition of each compound was calculated. The % Inhibition as a function of the compound concentration was fit with a Hill equation to derive IC50, slope, min and max parameters.

Structure (SMILES) | IC50 [nM]
Cn1nc(C(F)(F)F)cc1C(=O)NC(CNS(C)(=O)=O)c1nc(-c2cccc(F)c2)no1 (stereo not drawn) [Compound 169] | 1000 to 20000
Cc1nn(C(C)C)cc1C(=O)N[C@@H](C)c1nc(-c2cccc(C#N)c2)no1 [Compound 85] | ≥ 20000
CC(NC(=O)c1cc(C(F)(F)F)nn1C)c1nc(-c2cccc(C(=O)N(C)C)c2)no1 (stereo not drawn) [Compound 183, N-(1-(3-(3-(dimethylcarbamoyl)phenyl)-1,2,4-oxadiazol-5-yl)ethyl)-1-methyl-3-(trifluoromethyl)-1H-pyrazole-5-carboxamide] | ≥ 20000
CN(C)C(=O)C[C@@H](NC(=O)c1cc(C(F)(F)F)nn1C)c1nc(-c2cccc(F)c2)no1 (single isomer, unassigned) [Compound 135] | 1000 to 20000
C[C@H](NC(=O)c1cc(C(F)(F)F)nn1C)c1nc(-c2ccnc(CS(C)(=O)=O)c2)no1 [Compound 264, 2-methyl-N-[(1S)-1-[3-[2-(methylsulfonylmethyl)-4-pyridyl]-1,2,4-oxadiazol-5-yl]ethyl]-5-(trifluoromethyl)pyrazole-3-carboxamide] | ≥ 20000
Cn1nc(C(F)(F)F)cc1C(=O)NC(CC#N)c1nc(-c2cccc(F)c2)no1 (stereo not drawn) [Compound 140] | 1000 to 20000
Cc1nn(CC(F)F)cc1C(=O)N[C@@H](C)c1nc(-c2cccc(F)c2)no1 [Compound 163] | 1000 to 20000
Cn1nc(C(F)(F)F)cc1C(=O)NC(CNC(=O)OCc1ccccc1)c1nc(-c2cccc(F)c2)no1 (stereo not drawn) [Compound 157, benzyl N-[2-[3-(3-fluorophenyl)-1,2,4-oxadiazol-5-yl]-2-[[2-methyl-5-(trifluoromethyl)pyrazole-3-carbonyl]amino]ethyl]carbamate] | 1000 to 20000
C[C@H](NC(=O)c1cc(C(F)(F)F)nn1C)c1nc(-c2cccc(C#N)c2)no1 [Compound 104] | 1000 to 20000
CC[C@H](NC(=O)c1ccnn1-c1ccccc1)c1nc(-c2ccnc(C)c2)no1 [Compound 215, (S)—N-(1-(3-(2-methylpyridin-4-yl)-1,2,4-oxadiazol-5-yl)propyl)-1-phenyl-1H-pyrazole-5-carboxamide] | 1000 to 20000
CC[C@H](NC(=O)c1cc(C)nn1-c1cccnc1)c1nc(-c2ccnc(C)c2)no1 [Compound 231, (S)-3-methyl-N-(1-(3-(2-methylpyridin-4-yl)-1,2,4-oxadiazol-5-yl)propyl)-1-(pyridin-3-yl)-1H-pyrazole-5-carboxamide] | 1000 to 20000
Cn1nc(C(F)(F)F)cc1C(=O)NC(CC(=O)NCCO)c1nc(-c2cccc(F)c2)no1 (single isomer, unassigned) [Compound 121] | ≥ 20000
CC(C)[C@@H](NC(=O)c1cc(C2CC2)nn1C)c1nc(-c2cccc(F)c2)no1 [Compound 62] | 1000 to 20000
CC(NC(=O)c1c2c(nn1C)CCCC2)c1nc(-c2cccc(F)c2)no1 (stereo not drawn) [Compound 133] | 1000 to 20000
C[C@H](NC(=O)c1cc(C(F)(F)F)nn1C)c1nc(-c2ccnc(OC3CC(F)(F)C3)c2)no1 [Compound 208, (S)—N-(1-(3-(2-(3,3-difluorocyclobutoxy)pyridin-4-yl)-1,2,4-oxadiazol-5-yl)ethyl)-1-methyl-3-(trifluoromethyl)-1H-pyrazole-5-carboxamide] | ≤ 1000
Cc1cccc(-c2noc([C@@H](C)NC(=O)c3cn(C(C)C)nc3C)n2)c1 [Compound 232, 1-isopropyl-3-methyl-N-[(1R)-1-[3-(m-tolyl)-1,2,4-oxadiazol-5-yl]ethyl]pyrazole-4-carboxamide] | ≥ 20000
CC(NC(=O)c1cc(C2CC2)nn1C)c1nc(-c2cccc(Cl)c2)no1 (stereo not drawn) [Compound 6] | ≤ 1000
COC1CN(c2cc(-c3noc([C@H](C)NC(=O)c4cc(C(F)(F)F)nn4C)n3)ccn2)C1 [Compound 213, (S)—N-(1-(3-(2-(3-methoxyazetidin-1-yl)pyridin-4-yl)-1,2,4-oxadiazol-5-yl)ethyl)-1-methyl-3-(trifluoromethyl)-1H-pyrazole-5-carboxamide] | 1000 to 20000
CC[C@H](NC(=O)c1cc(C(F)(F)F)nn1C)c1nc(-c2ccnc(C(F)(F)F)c2)no1 [Compound 236, (S)-1-methyl-3-(trifluoromethyl)-N-(1-(3-(2-(trifluoromethyl)pyridin-4-yl)-1,2,4-oxadiazol-5-yl)propyl)-1H-pyrazole-5-carboxamide] | ≤ 1000
Cc1cccc(-c2noc(C(C)NC(=O)c3cc(C)nn3C(C)C)n2)c1 (stereo not drawn) [Compound 22] | ≤ 1000
Cc1nn(C(C)C)cc1C(=O)NC(C)c1nc(-c2ccc(OC(F)(F)F)cc2)no1 (stereo not drawn) [Compound 99] | 1000 to 20000
C[C@H](NC(=O)c1cc(C(F)(F)F)nn1C)c1nc(-c2ccnc(OCC(F)F)c2)no1 [Compound 211, (S)—N-(1-(3-(2-(2,2-difluoroethoxy)pyridin-4-yl)-1,2,4-oxadiazol-5-yl)ethyl)-1-methyl-3-(trifluoromethyl)-1H-pyrazole-5-carboxamide] | ≤ 1000

More lines, now with the values ahead:

IC50 [nM] | Structure (SMILES)
≤ 1000 | CC(NC(=O)c1cc(C(F)(F)F)nn1C)c1nc(-c2ccc(F)c(F)c2)no1 (stereo not drawn) [Compound 67]
≤ 1000 | CC(NC(=O)c1cc(C2CC2)nn1C)c1nc(-c2cccc(C(F)(F)F)c2)no1 (stereo not drawn) [Compound 12]
≤ 1000 | Cn1nc(C(F)(F)F)cc1C(=O)NCc1nc(-c2ccnc(C3CC3)c2)no1 [Compound 301, N-[[3-(2-cyclopropyl-4-pyridyl)-1,2,4-oxadiazol-5-yl]methyl]-2-methyl-5-(trifluoromethyl)pyrazole-3-carboxamide]
≤ 1000 | Cc1nn(C(C)C)cc1C(=O)N[C@@H](C)c1nc(-c2cc(F)cc(F)c2)no1 [Compound 92]
≤ 1000 | CC(NC(=O)c1cc(C2CC2)nn1C)c1nc(-c2ccc(Cl)cc2)no1 (stereo not drawn) [Compound 9]
≤ 1000 | Cc1nn(C(C)C)cc1C(=O)N[C@@H](C)c1nc(-c2cccc(C(F)(F)F)c2)no1 [Compound 89]
≤ 1000 | C[C@H](NC(=O)c1ccnn1C1CC1)c1nc(-c2ccnc(C3CC3)c2)no1 [Compound 305, 2-cyclopropyl-N-[(1S)-1-[3-(2-cyclopropyl-4-pyridyl)-1,2,4-oxadiazol-5-yl]ethyl]pyrazole-3-carboxamide]
≤ 1000 | C[C@@H](NC(=O)c1cc(C(F)(F)F)nn1C(F)F)c1nc(-c2cccc(Cl)c2)no1 (single isomer, unassigned) [Compound 82]
≤ 1000 | Cn1nc(C2CC2)cc1C(=O)N[C@H](c1nc(-c2cccc(F)c2)no1)C1CC1 (single isomer, unassigned) [Compound 109]
≤ 1000 | C[C@H](NC(=O)c1cc(C(F)(F)F)nn1C)c1nc(-c2ccnc(C3CCCC3)c2)no1 [Compound 307, (S)—N-(1-(3-(2-cyclopentylpyridin-4-yl)-1,2,4-oxadiazol-5-yl)ethyl)-1-methyl-3-(trifluoromethyl)-1H-pyrazole-5-carboxamide]
≤ 1000 | Cc1cccc(-c2noc(C(C)NC(=O)c3cc(C)nn3C(F)F)n2)c1 (stereo not drawn) [Compound 33]
≤ 1000 | CC(NC(=O)c1cc(C(F)(F)F)nn1C)c1nc(-c2ccc(Cl)cc2Cl)no1 (stereo not drawn) [Compound 75]
≤ 1000 | Cc1cccc(-c2noc(C(C)NC(=O)c3cc(C(C)(C)C)nn3C)n2)c1 (stereo not drawn) [Compound 13]
≤ 1000 | C[C@@H](NC(=O)c1cc(C(F)(F)F)nn1C)c1nc(-c2ccc(F)c(F)c2)no1 (single isomer, unassigned) [Compound 76]
